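Interpolation was linear, between the two tested concentrations surrounding the appropriate level; five concentrations were tested over 48 hours in 96-well plates. TGI marks complete inhibition of growth.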

The assay concerns P388 leukemia. Description: NCI tumour cell line growth inhibition, 48 h.
Consider `COC(=O)[C@]1(c2ccc(N(C)C)cc2OC)C[C@@H]2CCCN(CCc3c1[nH]c1ccccc31)C2`, for which the TGI was 36 µM. Under `CNC(=O)SCC(NC(=O)CCC(N)C(=O)O)C(=O)NCC(=O)O` (centres undefined) stands greater than 100 µM; under `COc1cc2c(cc1Oc1c(Oc3c(O)c(OC)cc4c3C(CC(C)C)N(C)CC4)c(OC)cc3c1C(CC(C)C)N(C)CC3)C(CC(C)C)N(C)CC2` (centres undefined), 3.62 µM; under `COC1=CC(=O)C=C(OC)C1=O`, 1.25 µM.

Values taken from PubChem BioAssay (NCI).
